According to patent US8420598B2, “Mono modified exendin with polyethylene glycol or its derivatives and uses thereof” (B & L Delipharm Corp., priority 2007, dated 2013):
Where two headings read alike, the source gives them in different places.

Assays:
db/db mice [1] = test: Measurement of anti-diabetic activity in animals (blood glucose monitoring); type: in vivo; conditions: for time blood glucose kept at normal levels (<150 mg/dL) after injection: s.c., same dosage, db/db mice
[2] = rat, in vivo, iv
db/db mice [3] = test: Animal model test: oral glucose tolerance after s.c. injection; type: in vivo; conditions: 1 nmol/kg s.c. 30 min before oral glucose, FIG. 8
Method: 30 min before, at the time of, and 15, 30, 60, 120 and 180 min after the oral administration of glucose, blood samples were taken from the tail vein and monitored for glucose level.

[4] = system: pancreatic islet cells of Sprague Dawley rats; test: Assay for promoting insulin secretion (insulin ELISA); type: cell-based; conditions: for EC50 / insulin secretory capacity: rat islet cells, 0.1-100 nM; for EC50: 16.7 mM glucose, 2 hours; for insulin secretory capacity: FIG. 5
Method: Cells used for this assay were pancreatic islet cells of Sprague Dawley rats, which could be isolated by collagenase digestion and then Ficoll gradient centrifugation. After being cultured for 2˜3 days in an incubator, the isolated pancreatic islet cells were suspended in 1 ml of KRH buffer (16.7 mM glucose) at a density of 20 cells per well into 24-well plates. […] Then, […] of the culture was taken from each well and analyzed for insulin level using an insulin ELISA kit.

[5] = rat, in vivo, sc
Method: SD rats weighing 200 g were subcutaneously injected with samples at a dose of 1 nmol/rat (4.18 μg/rat), followed by sampling blood through a tube inserted into the jugular vein. The blood samples were monitored for drug level using an ELISA kit.

PEG5k-exendin-4: exendin-4 modified at lysine-27 with 5 kDa mPEG-SPA, Example 2
time blood glucose kept at normal levels (<150 mg/dL) after injection (db/db mice [1]): 12 h

PEG20k-Exendin-4 (bi-branched): exendin-4 modified with 20 kDa bi-branched PEG, Example 3
time blood glucose kept at normal levels (<150 mg/dL) after injection (db/db mice [1]): about 8 hours
AUC [2]: 5717 ± 1015 ng·h/mL
Elimination Half Life [2]: 28.0 ± 10.4 h
Volume of Distribution [2]: 25.45 ± 16.84 mL

N^ter-PEG2k-exendin-4: exendin-4 modified at the N-terminus with 2 kDa mPEG-propionaldehyde, Example 1
activity by area under the glucose curve 0 to 180 min (db/db mice [3]): low effects
EC50 [4]: 136 nM
insulin secretory capacity [4]: low insulin secretory capacity

PEG20k-exendin-4: exendin-4 modified at lysine-27 with 20 kDa mPEG-SPA, Example 2
time blood glucose kept at normal levels (<150 mg/dL) after injection (db/db mice [1]): about 36 hours
Elimination Half Life [5]: 22.0 ± 1.7 h
residual activity (insulin secretion) ([4]; 10 nM, relative to natural exendin-4, FIG. 9): ≥ 40%

Lys^27-PEG2k-exendin-4: exendin-4 modified at lysine-27 with 2 kDa PEG (mPEG-SPA), Example 2
time blood glucose kept at normal levels (<150 mg/dL) after injection (db/db mice [1]): about 6 hours
activity by area under the glucose curve 0 to 180 min (db/db mice [3]): activity similar to that of natural exendin-4
time to reach basal line (<2 ng/mL) after administration [5]: 4 h
EC50 [4]: 3.11 nM
insulin secretory capacity [4]: superior to that of the other modified exendin-4, and similar to that of natural exendin-4

PEG23k-Exendin-4 (tri-branched): exendin-4 modified at lysine-27 with 23 kDa tri-branched PEG, Example 3
duration of medicinal efficacy (db/db mice [1]; dose of 5 nmol/kg): 12 to 18 h
duration of medicinal efficacy (db/db mice [1]; dose of 10 nmol/kg): 36 to 48 h
duration of medicinal efficacy (db/db mice [1]; dose of 20 nmol/kg): 72 to 96 h
duration of useful medicinal effects (db/db mice [1]; dose of 50 nmol/kg): ≤ 120 h
AUC [2]: 7659 ± 1365 ng·h/mL
Elimination Half Life [2]: 25.1 ± 9.1 h
Volume of Distribution [2]: 9.41 ± 1.57 mL
promotion of insulin secretion, dose dependence ([4]; 0.1, 1, 10 and 100 nM, FIG. 16): promote insulin secretion in a dose-dependent manner

PEG10k-exendin-4: exendin-4 modified at lysine-27 with 10 kDa mPEG-SPA, Example 2
time blood glucose kept at normal levels (<150 mg/dL) after injection (db/db mice [1]): 18 h
